Reference: patent US20230399312A1, “SUBSTITUTED PYRIMIDINES AND METHODS OF USE” (THERAVANCE BIOPHARMA R&D IP, LLC, priority 2020, published 2023)

Columns and labels:
[1] = tested on: TGF-β-stimulated SMAD3 phosphorylation in BEAS-2B cells; assay: Cellular ALK5 potency assay, inhibition of TGF-β stimulated pSMAD3 formation in BEAS-2B cells; type: cell-based; details: Homo sapiens, pSMAD3, TGF-β 10 ng/mL, read-out: BEAS2B pIC50 (converted)
Outline: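 Human lung epithelial BEAS-2B cells were pre-treated with compound for 1 h at 37 °C, then stimulated with TGF-β (final 10 ng/mL) for 30 min before lysis. pSMAD3 was quantified by AlphaLISA and pIC50 derived from dose-dependent signal change versus TGF-β-stimulated untreated cells.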

[2] = target: T1, recombinant human ALK5 (TGF-βR1) protein (Homo sapiens, UniProt P36897); assay: Biochemical ALK5 (TGF-βR1) assay to measure pKi (LANCE Ultra ULight kinase assay); details: apparent pKi, converted from pIC50 by Cheng-Prusoff
T1 construct: purchased Life Technologies PR9075A
T1 sequence (P36897 34-503): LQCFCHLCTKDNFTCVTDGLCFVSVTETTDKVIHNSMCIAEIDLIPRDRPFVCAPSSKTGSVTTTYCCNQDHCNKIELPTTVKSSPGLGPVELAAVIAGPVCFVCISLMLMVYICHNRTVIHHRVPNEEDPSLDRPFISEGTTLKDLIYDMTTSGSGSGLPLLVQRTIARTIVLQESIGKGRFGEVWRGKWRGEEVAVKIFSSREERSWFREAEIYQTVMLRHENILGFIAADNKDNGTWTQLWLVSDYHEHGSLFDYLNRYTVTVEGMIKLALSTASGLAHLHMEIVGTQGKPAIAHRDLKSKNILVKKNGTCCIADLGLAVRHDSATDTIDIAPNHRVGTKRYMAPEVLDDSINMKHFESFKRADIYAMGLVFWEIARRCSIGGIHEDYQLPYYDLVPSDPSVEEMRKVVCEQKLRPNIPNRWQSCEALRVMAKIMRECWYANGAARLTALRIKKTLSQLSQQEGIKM
Outline: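 Enzyme was preincubated with compound for 60 min at room temperature, then ATP (added from a 125 μM 5× stock with 2 mM DTT) started a 60 min reaction at 37 °C. EDTA plus Eu-anti-phospho-Topo2α (Thr1342) antibody stopped it; TR-FRET pIC50 values were converted to pKi by Cheng-Prusoff.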

Row | Compound | IC50 [1] [nM] | Ki [2] [nM]
1 | Cc1cccc(-c2nccc(Nc3ccnc(Nc4ccc(S(N)(=O)=O)cc4)n3)n2)n1 [Compound 108, 4-((4-((2-(6-methylpyridin-2-yl)pyrimidin-4-yl)amino)pyrimidin-2-yl)amino)benzenesulfonamide] | 25.1 to 158 | 0.0398 to 0.316
2 | Cc1cccc(-c2nccc(Nc3ccnc(Nc4ccc(CN5CCN(C(C)(C)C)CC5)cc4)n3)n2)n1 [Compound 109, N2-[4-[(4-tert-butylpiperazin-1-yl)methyl]phenyl]-N4-[2-(6-methyl-2-pyridyl)pyrimidin-4-yl]pyrimidine-2,4-diamine] | 25.1 to 158 | 0.0398 to 0.316
3 | Cc1cccc(-c2nccc(Nc3ccnc(Nc4ccc(NC(=O)N5CCN(C(C)C)CC5)cc4)n3)n2)n1 [Compound 110, 4-isopropyl-N-[4-[[4-[[2-(6-methyl-2-pyridyl)pyrimidin-4-yl]amino]pyrimidin-2-yl]amino]phenyl]piperazine-1-carboxamide] | 25.1 to 158 | 0.0398 to 0.316
4 | Cc1cccc(-c2nccc(Nc3ccnc(Nc4ccc(F)c(CN5CCNCC5)c4)n3)n2)n1 [Compound 111, N2-[4-fluoro-3-(piperazin-1-ylmethyl)phenyl]-N4-[2-(6-methyl-2-pyridyl)pyrimidin-4-yl]pyrimidine-2,4-diamine] | 25.1 to 158 | 0.0398 to 0.316
5 | Cc1cccc(-c2nccc(Nc3ccnc(Nc4ccc(CN5CCCC(C(=O)N6CCNCC6)C5)cc4)n3)n2)n1 (stereo not drawn) [Compound 112, [1-[[4-[[4-[[2-(6-methyl-2-pyridyl)pyrimidin-4-yl]amino]pyrimidin-2-yl]amino]phenyl]methyl]-3-piperidyl]-piperazin-1-yl-methanone] | 25.1 to 158 | 0.0398 to 0.316
6 | CC[C@H](C)OC(=O)C1CN(c2ccc(Nc3nccc(Nc4ccnc(-c5cccc(C)n5)n4)n3)cc2)CCN1 (stereo partly drawn) [Compound 113, [(1S)-1-methylpropyl] 4-[4-[[4-[[2-(6-methyl-2-pyridyl)pyrimidin-4-yl]amino]pyrimidin-2-yl]amino]phenyl]piperazine-2-carboxylate] | 25.1 to 158 | 0.0398 to 0.316
7 | Cc1cccc(-c2nccc(Nc3ccnc(Nc4ccc(C5CCNCC5)cn4)n3)n2)n1 [Compound 114, N4-[2-(6-methyl-2-pyridyl)pyrimidin-4-yl]-N2-[5-(4-piperidyl)-2-pyridyl]pyrimidine-2,4-diamine] | 200 to 1260 | 0.398 to 3.16
8 | Cc1cccc(-c2nccc(Nc3ccnc(Nc4ccc(C(=O)N5CCNCC5)s4)n3)n2)n1 [Compound 115, [5-[[4-[[2-(6-methyl-2-pyridyl)pyrimidin-4-yl]amino]pyrimidin-2-yl]amino]-2-thienyl]-piperazin-1-yl-methanone] | 25.1 to 158 | 0.0398 to 0.316
9 | Cc1cccc(-c2nccc(Nc3ccnc(Nc4ccc(N(C)[C@H]5CCNC5)cc4)n3)n2)n1 [Compound 116, N4-[2-(6-methyl-2-pyridyl)pyrimidin-4-yl]-N2-[4-[methyl-[(3S)-pyrrolidin-3-yl]amino]phenyl]pyrimidine-2,4-diamine] | 25.1 to 158 | 0.0398 to 0.316
10 | Cc1cccc(-c2nccc(Nc3ccnc(Nc4cccc(NCC5CNC5)c4)n3)n2)n1 [Compound 118, N2-[3-(azetidin-3-ylmethylamino)phenyl]-N4-[2-(6-methyl-2-pyridyl)pyrimidin-4-yl]pyrimidine-2,4-diamine] | 25.1 to 158 | 0.0398 to 0.316
11 | Cc1cccc(-c2nccc(Nc3ccnc(Nc4ccc(S(N)(=O)=O)cn4)n3)n2)n1 [Compound 119, 6-[[4-[[2-(6-methyl-2-pyridyl)pyrimidin-4-yl]amino]pyrimidin-2-yl]amino]pyridine-3-sulfonamide] | 25.1 to 158 | 3.98 to 31.6
12 | Cc1cccc(-c2nccc(Nc3ccnc(Nc4ccc(N5CCNCC5)c(F)c4)n3)n2)n1 [Compound 120, N2-(3-fluoro-4-piperazin-1-yl-phenyl)-N4-[2-(6-methyl-2-pyridyl)pyrimidin-4-yl]pyrimidine-2,4-diamine] | 25.1 to 158 | 0.0398 to 0.316
